Test results reported in patent US20260083674A1, “OXAZOLIDINONE LIPOSOME COMPOSITIONS” (priority 2021, published 2026).
In brackets after ≈: the same amount, converted by molar mass. Where two headings read alike, the source gives them in different places.

Key:
M.tb H37Rv = assay: Broth microdilution MIC with Alamar blue endpoint (MABA), M.tb H37Rv; assay type: cell-based; conditions: Mycobacterium tuberculosis
[1] = system: mitochondrial protein synthesis vs H37Rv M. tuberculosis; assay: MPS selectivity index (MPS IC50 / MIC H37Rv)
[2] = system: methicillin resistant Staphylococcus aureus (MRSA) ATCC 43300; assay: MIC against MRSA strain ATCC 43300; conditions: read-out: MRSA MIC, strain ATCC 43300
[3] = system: methicillin resistant Staphylococcus aureus (MRSA) 880 NR-49120; assay: MIC against MRSA strain 880 NR-49120; conditions: read-out: MRSA MIC, strain 880 NR-49120
[4] = system: methicillin resistant Staphylococcus aureus (MRSA) ATCC BAA-1556; assay: MIC against MRSA strain ATCC BAA-1556; conditions: ATCCBAA1556|MRSA
[5] = system: African green monkey kidney (Vero; ATCC #CCL81) cells; assay: In vitro cytotoxicity (PrestoBlue cell viability), Vero cells; conditions: Chlorocebus sabaeus, 72 h, read-out: Cell viability IC50, VERO
Description: (§1) Data is reported out as the full cell viability curve, as well as a calculation of the actual IC50 value for each compound.
(§2) Adherent cells were grown to ˜80% confluency. […] The cell density was determined using a hemocytometer.
(§3) These compounds were provided as sterile aqueous solutions of HCl salts with a concentration of 5 mg/ml. For making dilutions, each drug stock was warmed to room temperature, vortexed and was visually inspected for precipitation. If solid drug was present, the stock was heated on a 60° C. water bath and then allowed to cool to near room temperature. Based on the treatment concentrations, 20× working stocks were made by serial dilution.
(§4) At the end of the compound incubation period, replace the media in each well with 100 μl of 1× PrestoBlue Cell Viability Reagent (ThermoFisher Cat #A13261). Incubate the plate at 37° C. in a humidified incubator with 5% CO2 30 min to 2 h. […] Read fluorescence with 560 nm excitation and 590 nm emission using SpectraMax M5 plate reader (Molecular Devices). Correct background by subtracting the RFU of the control containing only the culture medium (background control well) from all sample readings. Calculate the percentage of cytotoxicity using the formula below:
(§5) The IC50 was determined using GraphPad Prism using the following formula:

[6] = system: human hepatocyte/liver (HepG2; ATCC #HB8065) cells; assay: In vitro cytotoxicity (PrestoBlue cell viability), HepG2 cells; conditions: HepG2, 72 h, read-out: Cell viability IC50, HepG2
Description: as §1, §2, §3, §4, §5

[7] = system: mitochondrial protein synthesis (COX-1/SDH-A) in H9C2 rat heart myoblast cells; assay: Inhibition of mitochondrial protein synthesis (MitoBiogenesis in-cell ELISA, COX-1/SDH-A); conditions: H9c2, 120 h, read-out: MPS IC50
Description: Inhibition of mitochondrial protein synthesis was determined using a colorimetric MitoBiogenesis™ in-cell ELISA kit from AbCam (Catalog #ab11021), as per the manufacturer's instructions. […] The levels of two mitochondrial proteins were measured simultaneously, including the mitochondrial DNA-encoded subunit I of Complex IV (COX-1) and the nuclear DNA-encoded 70 kDa subunit of Complex II (SDH-A). The H9C2 rat BDIX heart myoblast cell line was used in these studies in a 384 well plate assay format. Cells were grown in DMEM media with 10% FBS and 1×Glutamine at 37° C. and 5% CO2. […] Ten concentrations of each compound, starting at a high concentration of 200 μM and including nine 3-fold dilutions and one replicate per condition, were added to the cells in 2.5 μl and incubated with the cells for five days at 37° C. and 5% CO2.
COX-I and SDH-A signals were plotted as a ratio of COX-1/SDH-A against concentration of each compound, and the IC50 were calculated for each of the 9 investigational compounds and two controls.

[8] = system: M. tuberculosis Erdman or H37Rv vs VERO or HepG2 cell lines; assay: Selectivity Index (IC50 mammalian cells / MIC bacteria); parameters: species or system Mycobacterium tuberculosis; conditions: for Selectivity Index (SI) Erd/VERO: IC50 VERO / MIC Erdman; for Selectivity Index (SI) Erd/HepG2: IC50 HepG2 / MIC Erdman; for Selectivity Index (SI) H37Rv/HepG2: IC50 HepG2 / MIC H37Rv; for Selectivity Index (SI) H37Rv/VERO: IC50 VERO / MIC H37Rv
[9] = Liposome loading: encapsulated drug-to-lipid ratio and encapsulation efficiency; assay type: physicochemical
Description: 1. The lipid components (phospholipid (PhL), cholesterol, and optionally—a PEG-lipid derivative and/or a lipid fluorescent label were combined in an amount of 100% ethanol equal to one-tenth of a volume (V) calculated to obtain lipid suspension with about 60 mM phospholipid and stirred at the temperature of 65-68° C. until complete dissolution of the lipids.
2. The ethanolic lipid solution was combined with volume V of the trapping agent solution (0.25-0.5 M ammonium sulfate or 1 N triethylammonium sucrose octasulfate) upon stirring at 65-68° C. until a uniform suspension was obtained.
3. The lipid suspension was extruded at least three times through a stack of track-etched polycarbonate membranes, typically, two or four membranes with the nominal pore size of 100 nm and one with the nominal pore size 200 nm (Whatman Nuclepore, USA), using a thermobarrel extruder (Lipex, Canada) at 65-68° C., at the pressure of 400-450 psi. When two 100-nm membranes were used in a 100-ml Lipex extruder, the extrusion pressure was typically 260-300 psi. The resulting liposomes have Z-average particle size (diameter) Xz between about 80 and about 130 nm, and PDI less than 0.1.
5. An aliquot of the extruded, filtered liposome suspension so made was chromatographed on a gravity-fed Sepharose CL-4B size exclusion column (eluent-Type 1 water), to purify the liposomes from extraliposomal trapping agent. The purified liposomes were collected near the void volume fraction of the column. For a scale-up studies, this step was performed using a tangential flow filtration (TFF) on a hollow fiber cartridge (Repligen Spectrum MicroKros PS or mPES membrane with MWCO of 500 KDa) effecting 8-10 volume exchanges (or until the conductivity of the liposome suspension dropped below 200 μS/cm) with Type 1 or USP “Water for injection” endotoxin-free water.
6. The lipid concentration in a purified extruded liposome preparation was determined using HPLC with UV detection, by measuring the concentration of cholesterol and correcting for the known phospholipid/cholesterol molar ratio. Alternatively, a spectrophotometric blue phosphomolybdate method was used to directly quantify the phospholipid content.
7. The drug was dissolved in Type 1 or endotoxin-free pure water in the form of a hydrochloric acid salt (e.g., AKG-3 and AKG-5 were used as monohydrochloride, AKG-28 and AKG-29 were used as dihydrochloride) at the concentration of 5-20 mg/ml of the drug. To the drug prepared in free base form (e.g., AKG-16, AKG-38), an equivalent amount of HCl was added. If necessary, pH of the solution was brought between pH 2.5-5.5, using 1 N NaOH, HCL, or tris(hydroxymethyl)aminomethane (Tris)-base solution, and the solution was filtered through a 0.2-micron PES filter under positive pressure. When necessary, the drug concentration in the stock solution so made was verified by HPLC with UV detection at 305 nm.
8. Purified liposomes of step 5 and the drug stock solution were combined in the presence of an osmotic agent (typically dextrose) and water in the amounts necessary to provide a desired drug-to-phospholipid (DL) ratio, the drug concentration in the range 1.5-3.3 mg/ml, at the osmolality equal to the measured osmolality of the trapping agent solution of step 2. Optionally, a buffer at a desired pH (typically pH 4 to pH 7) was added. In some instances, the amount of added osmotic agent (e.g., dextrose at about 45 g/L) provided osmolality less that the measured osmolality of the trapping agent solution, and the loading was effected at 6-8 mg/ml of the drug.
9. The drug-liposome mixture was incubated with constant agitation at 65-68° C. for about 15-20 min and quickly chilled on ice. After 5-10 min, the mixture was allowed to reach ambient temperature an adjusted to 0.1M NaCl by adding a calculated amount of 3 M NaCl stock solution.
10. […] The liposome fractions were collected near the column void volume. […]

M.tb Erdman = assay: Broth microdilution MIC with Alamar blue endpoint (MABA), M.tb Erdman; assay type: cell-based, Mycobacterium tuberculosis; conditions: for MIC: Mycobacterium tuberculosis, ERDMAN, broth microdilution, MABA/OD600
[10] = assay type: physicochemical
Description: To the resulting cake or syrup, water was added typically to the final 10 mg/ml, and complete dissolution was observed. […] Aqueous solubility of the compounds of the present disclosure is illustrated by the following observations of obtaining visually clear solutions: […]

[11] = system: methicillin resistant Staphylococcus aureus (MRSA) ATCC BAA-1556; conditions: cited from earlier work
[12] = read-out: MIC against the three MRSA strains
[13] = read-out: MRSA MIC, strain ATCC BAA-1556
[14] = 1 N TEA-SOS, DL0 750-1500 g/mol PhL
[15] = broth microdilution, MABA/OD600, read-out: Mycobacterium tuberculosis MIC, H37Rv

Structure (SMILES)	SI-MPS MPS/H37 [1]	IC50 [5]	IC50 [6]	Selectivity Index (SI) Erd/VERO [8]	MIC (M.tb Erdman)	MIC (M.tb H37Rv; [15])	Selectivity Index (SI) H37Rv/HepG2 [8]	Selectivity Index (SI) H37Rv/VERO [8]	other results
CN(C)CCCn1nnc(-c2ccc(-c3ccc(N4C[C@H](CN)OC4=O)cc3F)cn2)n1.Cl (stereo in doubt) [AKG-30]	2.02	110 µg/mL	18.9 µg/mL	–	–	–	–	–	MIC (M.tb H37Rv; read-out: MIC (H37Rv)): 0.125 µg/mL; MIC [2]: > 50 µg/mL; MIC [3]: > 50 µg/mL; MIC [4, 12]: > 50 µg/mL; MIC [4, 13]: > 50 µg/mL; IC50 [7]: 0.252 µg/mL
CN(C)CCCC(=O)OC[C@H]1CN(c2ccc(-c3ccc(-c4nnn(C)n4)nc3)c(F)c2)C(=O)O1 [AKG-5]	–	–	–	32.5	–	–	–	–	Maximum encapsulated drug payload ([9]; 0.5 M AS, 0.5 mol % PEG): 627 g/mol PhL; Drug loading efficiency ([9]; 0.5 mol % PEG-DSG, 1N TEA-SOS, DL0 500 g/mol PhL (Example 8, no added buffer)): 101.3; Drug loading efficiency ([9]; 0.5 mol % PEG-DSG, […] AS, DL0 250 g/mol PhL): 98.5; Drug loading efficiency ([9]; 0.5 mol % PEG-DSG, […] AS, DL0 500 g/mol PhL): 97.7; loading efficiency at or near the maximum drug load [9, 14]: ≥ 96.0%; maximum drug load [9, 14]: 982-1197 g/mol PhL; Drug loading efficiency ([9]; 5 mol % PEG-DSG, 1N TEA-SOS, DL0 500 g/mol PhL): 99.3
CCN(CC)CCCNC[C@H]1CN(c2ccc(-c3ccc(-c4nnn(C)n4)nc3)c(F)c2)C(=O)O1 [AKG-8]	–	–	–	–	> 8 µg/mL	> 8 µg/mL	–	–	–
CCN(CC)CCNC[C@H]1CN(c2ccc(-c3ccc(-c4nnn(C)n4)nc3)c(F)c2)C(=O)O1 [AKG-9]	–	139 µg/mL (≈ 297 µM)	28.1 µg/mL (≈ 60 µM)	<17.4	> 8 µg/mL	> 8 µg/mL	3.5	<17.4	Selectivity Index (SI) Erd/HepG2 [8]: <3.5
CN(C)CCNc1ccc(-c2ccc(N3C[C@H](CO)OC3=O)cc2F)cn1 [AKG-12]	–	89.1 µg/mL (≈ 238 µM)	67.6 µg/mL (≈ 181 µM)	22.3	4 µg/mL (≈ 10.7 µM)	4 µg/mL (≈ 10.7 µM)	16.9	22.3	Selectivity Index (SI) Erd/HepG2 [8]: 16.9
CN(C)CCn1nnc(-c2ccc(-c3ccc(N4C[C@H](CO)OC4=O)cc3F)cn2)n1 [AKG-16]	–	–	–	–	–	–	–	–	Concentration % (w/w) of free base, visually clear solution [10]: 30.0 % (w/w); Maximum encapsulated drug payload ([9]; 0.5 M AS, 0.5 mol % PEG): 668-675 g/mol PhL; Maximum encapsulated drug payload ([9]; 0.5 M AS, 5 mol % PEG): 614-619 g/mol PhL; maximum drug load [9, 14]: 938-951 g/mol PhL
Cl.Cn1nnc(-c2ccc(-c3ccc(N4C[C@H](CNC(=O)CCN)OC4=O)cc3F)cn2)n1 [AKG-17]	–	–	37.3 µg/mL	>125	2 µg/mL	2 µg/mL	18.7	>125	Selectivity Index (SI) Erd/HepG2 [8]: 18.7
Cl.Cn1nnc(-c2ccc(-c3ccc(N4C[C@H](CNC(=O)CCCN)OC4=O)cc3F)cn2)n1 [AKG-18]	–	> 250 µg/mL	9.5 µg/mL	>125	2 µg/mL	2 µg/mL	4.8	>125	Selectivity Index (SI) Erd/HepG2 [8]: 4.8
Cl.Cn1nnc(-c2ccc(-c3ccc(N4C[C@H](CNCCN)OC4=O)cc3F)cn2)n1 [AKG-19]	–	> 250 µg/mL	42.2 µg/mL	>31.3	> 8 µg/mL	> 8 µg/mL	5.3	>31.3	Selectivity Index (SI) Erd/HepG2 [8]: 5.3
Cl.NCCn1nnnc1-c1ccc(-c2ccc(N3C[C@H](CO)OC3=O)cc2F)cn1 [AKG-22]	2.37	–	–	–	–	–	–	–	–
CN(C)CCn1nnc(-c2ccc(-c3ccc(N4C[C@H](CN)OC4=O)cc3F)cn2)n1 [AKG-28]	–	–	–	–	–	–	–	–	Concentration % (w/w) of free base, visually clear solution [10]: 7.3 % (w/w)
Cl.Cl.NCCn1nnc(-c2ccc(-c3ccc(N4C[C@H](CN)OC4=O)cc3F)cn2)n1 [AKG-29]	32.80	110 µg/mL	74.4 µg/mL	–	0.25 µg/mL	–	–	–	MIC [2]: > 50 µg/mL; MIC [3]: 50 µg/mL; MIC [4, 12]: > 50 µg/mL; MIC [4, 13]: 50 µg/mL
CCN(CC)CCCn1nnc(-c2ccc(-c3ccc(N4C[C@H](CN)OC4=O)cc3F)cn2)n1.Cl [AKG-31]	–	112 µg/mL	13.2 µg/mL	–	0.5 µg/mL	0.5 µg/mL	26.4	223.0	–
CC(=O)NC[C@H]1CN(c2ccc(-c3ccc(-c4nnn(CCN(C)C)n4)nc3)c(F)c2)C(=O)O1 [AKG-38]	–	≥ 395 µg/mL	97 µg/mL (≈ 207 µM)	–	–	–	–	–	Concentration % (w/w) of free base, visually clear solution [10]: 7.1 % (w/w); maximum drug load ([9]; 0.5 M AS, HSPC/Chol 3:2, 0.5 mol % PEG-DSG (Example 14)): 818-842 g/mol PhL; maximum drug load ([9]; 1 N TEA-SOS, HSPC/Chol 3:2, 0.5 mol % PEG-DSG (Example 14)): 989 g/mol PhL; drug load ([9]; 30 mol % cholesterol, 5 mol % PEG-DSG, 1 N TEA-SOS): 462.4 g/mol PhL; IC50 [7]: 0.041 µg/mL (≈ 0.0875 µM)
CCN(CC)CCn1nnc(-c2ccc(-c3ccc(N4C[C@H](CNC(C)=O)OC4=O)cc3F)cn2)n1 [AKG-39]	0.12	–	–	–	–	–	–	–	MIC, M. tuberculosis (Example 2) (M.tb Erdman; strain not given): 0.5 µg/mL (≈ 1.01 µM)
CCN(CC)CCCn1nnc(-c2ccc(-c3ccc(N4C[C@H](CNC(C)=O)OC4=O)cc3F)cn2)n1 [AKG-40]	0.13	–	–	–	–	–	–	–	–
Cn1nnc(-c2ccc(-c3ccc(N4C[C@H](CO)OC4=O)cc3F)cn2)n1 [Tedizolid, reference compound]	0.57	–	–	–	–	–	–	–	MIC described in U.S. Pat. No. 7,816,379 [11]: 0.5 µg/mL (≈ 1.35 µM)
